Like-named read-outs stand apart in the source and are kept apart here.
Experiments:
[1] = molecular target: Beta Secretase enzyme (BACE) (Homo sapiens, UniProt P56817); test: In vitro enzymatic BACE FRET (fluorescence resonance energy transfer) assay; assay type: biochemical;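 also: fluorescence read after 1 h with 50 nM quenched peptide substrate spanning the BACE cleavage site, in pH 4.2 acetate buffer containing 10% DMSO and nonionic detergent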
[2] = tested on: Aβ40 in conditioned medium of cells stably expressing Amyloid Precursor Protein (APP); test: In vitro BACE cell-based assay (Aβ40 in conditioned medium, sandwich ELISA); conditions: Homo sapiens;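 also: compounds added as a dilution series, secreted peptide quantified by europium time-resolved fluorescence readout, potency fitted from percent of control versus compound concentration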
[3] = molecular target: CYP3A4 (CYP3A) (Homo sapiens, UniProt P08684); test: in vitro; conditions: microsomes, pH 7.4;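 also: inhibition of CYP3A-mediated 1-hydroxymidazolam formation after 10 min incubation with NADPH, quantified by HPLC MS relative to metabolite produced without test compound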
CYP3A4 (CYP3A), sequence (P08684 2-503): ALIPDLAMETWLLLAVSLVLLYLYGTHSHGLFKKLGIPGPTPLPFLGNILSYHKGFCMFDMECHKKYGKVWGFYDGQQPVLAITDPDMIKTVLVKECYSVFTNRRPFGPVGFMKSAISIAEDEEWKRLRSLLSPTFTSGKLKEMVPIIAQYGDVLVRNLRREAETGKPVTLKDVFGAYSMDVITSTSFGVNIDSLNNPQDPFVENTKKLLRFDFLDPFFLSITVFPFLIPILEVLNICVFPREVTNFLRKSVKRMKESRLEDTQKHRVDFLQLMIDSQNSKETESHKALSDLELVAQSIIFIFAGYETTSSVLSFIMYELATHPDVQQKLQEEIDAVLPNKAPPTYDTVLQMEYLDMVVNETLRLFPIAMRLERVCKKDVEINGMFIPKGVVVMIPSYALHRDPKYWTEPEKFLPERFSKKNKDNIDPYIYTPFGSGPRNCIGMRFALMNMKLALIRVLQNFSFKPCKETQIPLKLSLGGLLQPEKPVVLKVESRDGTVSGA

[4] = Microsomal stability assay, rat liver microsomes;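 also: rat liver microsomes (0.25 mg/mL) with about 1 µM compound plus 1 mM NADPH, pH 7.4, 37 °C for 30 min, parent left measured by LC-MS/MS against 0 min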
[5] = Microsomal stability assay, human liver microsomes;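 also: pooled human liver microsomes at 0.25 mg/mL with 1 µM compound and NADPH at 37 °C, pH 7.4, for 30 min, unchanged parent quantified by LC-MS/MS against the 0 min sample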
[6] = molecular target: CYP2D6 (Homo sapiens, UniProt P10635); test: CYP2D6 inhibition assay (bufuralol, pooled human liver microsomes)
CYP2D6, sequence (P10635 whole entry): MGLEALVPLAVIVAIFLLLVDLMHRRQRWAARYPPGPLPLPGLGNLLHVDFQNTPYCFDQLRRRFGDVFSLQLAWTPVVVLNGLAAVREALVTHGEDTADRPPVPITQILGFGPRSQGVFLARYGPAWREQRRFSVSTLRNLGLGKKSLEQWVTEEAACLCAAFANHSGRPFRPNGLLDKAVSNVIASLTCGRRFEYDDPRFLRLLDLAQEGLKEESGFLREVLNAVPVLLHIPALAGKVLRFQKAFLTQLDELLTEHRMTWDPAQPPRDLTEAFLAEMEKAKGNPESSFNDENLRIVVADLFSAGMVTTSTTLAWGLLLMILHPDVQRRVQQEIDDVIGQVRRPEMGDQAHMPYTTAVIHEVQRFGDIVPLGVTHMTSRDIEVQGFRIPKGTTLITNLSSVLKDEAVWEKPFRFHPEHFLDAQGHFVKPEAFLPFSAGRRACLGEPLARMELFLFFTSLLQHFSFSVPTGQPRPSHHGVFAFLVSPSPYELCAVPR

[7] = 2D6 IC50, CYP enzyme inhibition
[8] = BACE enzyme assay IC50, read-out: BACE1 FRET assay
[9] = HEK293, HEK cell-based assay IC50, read-out: HEK cell assay
[10] = 2D6 IC50 (uM), CYP2D6 inhibition
[11] = BACE enzyme assay, read-out: BACE1 FRET assay
[12] = HEK293, HEK cells, read-out: HEK cell assay
[13] = 2D6 IC50 (uM), CYP enzyme inhibition
[14] = read-out: BACE1 FRET assay (IC50)
[15] = HEK293, HEK cells, read-out: HEK cell assay (IC50)
[16] = BACE enzyme assay, IC50's in uM, read-out: BACE1 FRET assay
[17] = HEK293, HEK cell-based assay, IC50's in uM, read-out: HEK cell assay
[18] = HEK293, cell-based assay, HEK cells, IC50's in uM, read-out: HEK cell assay

Beta Secretase enzyme (BACE), sequence (P56817 46-501): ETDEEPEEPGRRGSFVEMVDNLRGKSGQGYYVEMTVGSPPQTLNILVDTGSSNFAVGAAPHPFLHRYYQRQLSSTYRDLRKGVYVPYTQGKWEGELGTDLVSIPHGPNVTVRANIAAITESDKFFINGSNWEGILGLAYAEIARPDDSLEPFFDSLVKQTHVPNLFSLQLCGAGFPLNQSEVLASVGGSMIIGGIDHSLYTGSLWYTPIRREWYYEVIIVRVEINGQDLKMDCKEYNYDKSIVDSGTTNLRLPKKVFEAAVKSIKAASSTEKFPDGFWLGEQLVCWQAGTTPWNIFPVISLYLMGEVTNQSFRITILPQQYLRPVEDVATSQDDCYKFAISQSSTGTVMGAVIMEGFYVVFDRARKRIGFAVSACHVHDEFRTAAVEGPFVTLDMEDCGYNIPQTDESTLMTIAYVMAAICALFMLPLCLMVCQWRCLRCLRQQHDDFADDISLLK

Row | Compound | IC50 [3] | RLM ([4]; rat liver microsomal data) | HLM ([5]; human liver microsomal data) | RLM ([4]; rat liver microsomes) | HLM ([5]; human liver microsomes) | other results
1 | CC(=O)C(C)(C)C(=O)N[C@@H](Cc1cccc(F)c1)[C@H](O)CN[C@H]1CC2(CCC2)Oc2ncc(CC(C)(C)C)cc21 [compound 467] | 400 nM | 292 µL/min/mg | 399 µL/min/mg |  |  | IC50 ([1]; Table 2, read-out: BACE1 FRET assay): 0.063 µM; IC50 ([2]; HEK293, Table 2, HEK cells, read-out: HEK cell assay): 0.209 µM; IC50 [6, 7]: 7.3 µM
2 | C#Cc1cc(F)cc(C[C@H](NC(C)=O)[C@H](O)CN[C@H]2CC3(CCC3)Oc3ncc(CC(C)(C)C)cc32)c1 [compound 713, N-((1S,2R)-3-(((4′S)-6′-(2,2-dimethylpropyl)-3′,4′-dihydrospiro[cyclobutane-1,2′-pyrano[2,3-b]pyridin]-4′-yl)amino)-1-(3-ethynyl-5-fluorobenzyl)-2-hydroxypropyl)acetamide] | 100 nM |  |  | 58 µL/min/mg | 75 µL/min/mg | IC50 [1, 8]: 0.003 µM; IC50 [2, 9]: 0.015 µM; IC50 [6, 10]: 1.2 µM
3 | COCC(=O)N[C@@H](Cc1cc(F)cc(F)c1)[C@H](O)CN[C@H]1CC2(CCC2)Oc2c1cc(CC(C)(C)C)nc2-n1ccnc1 [compound 494] | 200 nM | 63 µL/min/mg | 30 µL/min/mg |  |  | IC50 [1, 11]: 0.02 µM; IC50 [2, 12]: 0.072 µM; IC50 [6, 13]: 1.2 µM
4 | COCC(=O)N[C@@H](Cc1ccc(F)cc1)[C@H](O)CN[C@H]1CC2(CCC2)Oc2c(-c3cnc[nH]3)cc(CC(C)C)cc21 [compound 513] | 200 nM | 82 µL/min/mg | 143 µL/min/mg |  |  | IC50 [1, 11]: 0.088 µM; IC50 [2, 12]: 0.013 µM; IC50 [6, 13]: 2.5 µM
5 | CO[C@H](C)C(=O)N[C@@H](Cc1ccc2c(c1)OCO2)[C@H](O)CN[C@H]1CC2(CCC2)Oc2cnc(CC(C)C)cc21 [compound 666] | ≤ 30 nM |  |  | 228 µL/min/mg | 140 µL/min/mg | IC50 [1, 14]: 0.124 µM; IC50 [2, 15]: 0.175 µM; IC50 ([6]; 2D6 IC50, CYP2D6 inhibition): 2.4 µM
6 | CC(=O)N[C@@H](Cc1cccc(-n2ccnc2)c1)[C@H](O)CN[C@H]1CC2(CCC2)Oc2ncc(CC(C)(C)C)cc21 [compound 615, N-((1S,2R)-3-(((4′S)-6′-(2,2-dimethylpropyl)-3′,4′-dihydrospiro[cyclobutane-1,2′-pyrano[2,3-b]pyridin]-4′-yl)amino)-2-hydroxy-1-(3-(1H-imidazol-1-yl)benzyl)propyl)acetamide] | 160 nM |  |  | 32 µL/min/mg | 59 µL/min/mg | IC50 [1, 14]: 0.06 µM; IC50 [2, 15]: 0.007 µM; IC50 ([6]; 2D6 IC50, CYP2D6 inhibition): 0.16 µM
7 | CO[C@H](C)C(=O)N[C@@H](Cc1cc(F)cc(-c2nccs2)c1)[C@H](O)CN[C@H]1CC2(CCC2)Oc2cnc(CC(C)(C)F)cc21 [compound 721, (2R)-N-((1S,2R)-3-(((4′S)-6′-(2-fluoro-2-methylpropyl)-3′,4′-dihydrospiro[cyclobutane-1,2′-pyrano[2,3-c]pyridin]-4′-yl)amino)-1-(3-fluoro-5-(1,3-thiazol-2-yl)benzyl)-2-hydroxypropyl)-2-methoxypropanamide] | 300 nM |  |  | 152 µL/min/mg | 111 µL/min/mg | IC50 [1, 8]: 0.049 µM; IC50 [2, 9]: 0.118 µM; IC50 [6, 10]: 0.5 µM
8 | COCC(=O)N[C@@H](Cc1cc(F)cc(F)c1)[C@H](O)CN[C@H]1CC2(CCC2)Oc2c1cc(CC(C)C)nc2-c1nccn1C [compound 714] | ≤ 30 nM |  |  | 43 µL/min/mg | 20 µL/min/mg | IC50 [1, 8]: 0.016 µM; IC50 [2, 9]: 0.017 µM; IC50 [6, 10]: 2.2 µM
9 | COCC(=O)N[C@@H](Cc1cccc(F)c1)[C@H](O)CN[C@H]1CC2(CCC2)Oc2nc3c(cc21)[C@H](C(C)C)CO3 [compound 763] | 2000 nM | 399 µL/min/mg | 399 µL/min/mg |  |  | IC50 [1, 16]: 2.5 µM; IC50 [2, 17]: 1.3 µM; IC50 [6, 13]: 2 µM
10 | COC(OC)C(=O)N[C@@H](Cc1cccc(F)c1)[C@H](O)CN[C@H]1CC2(CCC2)Oc2ncc(CC(C)(F)F)cc21 [compound 797] | 1400 nM | 199 µL/min/mg | 256 µL/min/mg |  |  | IC50 [1, 16]: 0.008 µM; IC50 [2, 17]: 0.017 µM; IC50 [6, 13]: 4.1 µM
11 | CC(=O)N[C@@H](Cc1cc(F)cc(-c2ccncc2)c1)[C@H](O)CN[C@H]1CC2(CCC2)Oc2ncc(CC(C)(C)C)cc21 [compound 614] | 160 nM |  |  | 107 µL/min/mg | 244 µL/min/mg | IC50 [1, 14]: 0.012 µM; IC50 [2, 15]: 0.008 µM; IC50 ([6]; 2D6 IC50, CYP2D6 inhibition): 0.4 µM
12 | CO[C@H](C)C(=O)N[C@@H](Cc1cc(-c2nccs2)ccc1F)[C@H](O)CN[C@H]1CC2(CCC2)Oc2ncc(CC(C)(C)C)cc21 [compound 898] | 100 nM | 121 µL/min/mg | 67 µL/min/mg |  |  | IC50 [1, 16]: 0.01 µM; IC50 [2, 18]: 0.014 µM; IC50 [6, 7]: 1 µM
13 | CO[C@H](C)C(=O)N[C@@H](Cc1cc(F)cc(-c2nccs2)c1)[C@H](O)CN[C@H]1CC2(CCC2)Oc2ncc(Br)cc21 [compound 852] | 300 nM | 156 µL/min/mg | 106 µL/min/mg |  |  | IC50 [1, 16]: 0.246 µM; IC50 [2, 18]: 0.094 µM; IC50 [6, 7]: 0.3 µM
14 | CC(=O)N[C@@H](Cc1ccc(F)c(-c2nccs2)c1)[C@H](O)CN[C@H]1CC2(CCC2)Oc2ncc(CC(C)(C)C)cc21 [compound 621, N-((1S,2R)-3-(((4′S)-6′-(2,2-dimethylpropyl)-3′,4′-dihydrospiro[cyclobutane-1,2′-pyrano[2,3-b]pyridin]-4′-yl)amino)-1-(4-fluoro-3-(1,3-thiazol-2-yl)benzyl)-2-hydroxypropyl)acetamide] | 160 nM |  |  | 64 µL/min/mg | 45 µL/min/mg | IC50 [1, 14]: 0.001 µM; IC50 [2, 15]: 0.01 µM; IC50 ([6]; 2D6 IC50, CYP2D6 inhibition): 0.9 µM
15 | COCC(=O)N[C@@H](Cc1cc(F)cc(-c2nccs2)c1)[C@H](O)CN[C@H]1CC2(CCC2)Oc2ncc(CC(C)(C)F)cc21 [Example 724, N-((1S,2R)-3-(((4′S)-6′-(2-fluoro-2-methylpropyl)-3′,4′-dihydrospiro[cyclobutane-1,2′-pyrano[2,3-b]pyridin]-4′-yl)amino)-1-(3-fluoro-5-(1,3-thiazol-2-yl)benzyl)-2-hydroxypropyl)-2-methoxyacetamide] | 200 nM |  |  | 38 µL/min/mg | 45 µL/min/mg | IC50 [1, 8]: 0.006 µM; IC50 [2, 9]: 0.009 µM; IC50 [6, 10]: 0.9 µM
16 | COCC(=O)N[C@@H](Cc1cc(F)cc(F)c1)[C@H](O)CN[C@H]1CC(C)(C)Oc2c1cc(CC(C)C)c1c2OCO1 [compound 748] | 100 nM |  |  | 179 µL/min/mg | 190 µL/min/mg | IC50 [1, 8]: 0.013 µM; IC50 [2, 9]: 0.126 µM; IC50 [6, 10]: 8.2 µM
17 | CO[C@H](C)C(=O)N[C@@H](Cc1cccc(F)c1)[C@H](O)CN[C@H]1CC2(CCC2)Oc2c(-c3ccncc3)cc(CC(C)C)cc21 [compound 609] | 100 nM |  |  | 137 µL/min/mg | 64 µL/min/mg | IC50 [1, 14]: 0.008 µM; IC50 [2, 15]: 0.005 µM; IC50 ([6]; 2D6 IC50, CYP2D6 inhibition): 2 µM
18 | CO[C@H](C)C(=O)N[C@@H](Cc1ccc2c(c1)OCO2)[C@H](O)CN[C@@H]1c2cc(CC(C)(C)C)cnc2OC2(CCC2)[C@H]1F [compound 539] | 100 nM | 161 µL/min/mg | 61 µL/min/mg |  |  | IC50 [1, 11]: 4.77 µM; IC50 [2, 12]: 0.147 µM; IC50 [6, 13]: 6.5 µM
